Data from US8597904B2, “Pharmaceutical compositions for the treatment of conditions responsive to proteasome inhibition” (priority 2007, dated 2013).

Key:
SKOV3 cells = conditions: values from previous studies with SylA (Coleman et al. 2006); cited from earlier work
Papaya latex papain = target: T1, Papaya latex papain (Carica papaya, UniProt P00784); assay: SensoLyte Green Protease Fluorometric Assay, papain inhibition; type: biochemical; conditions: syringolin A up to 500 μM
T1 construct: Papaya latex papain (Sigma-Aldrich); purchased Sigma-Aldrich; host or cells: papaya latex
T1 sequence (P00784 134-345): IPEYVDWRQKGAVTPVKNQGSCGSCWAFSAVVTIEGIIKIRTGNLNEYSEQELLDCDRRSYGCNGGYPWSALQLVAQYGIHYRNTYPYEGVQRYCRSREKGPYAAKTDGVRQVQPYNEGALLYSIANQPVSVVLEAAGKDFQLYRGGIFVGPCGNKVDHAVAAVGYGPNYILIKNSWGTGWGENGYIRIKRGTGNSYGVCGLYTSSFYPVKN
Method: To test the specificity of syringolin A inhibition of proteasome activities, bovine pancreas trypsin (Pierce) and Papaya latex papain (Sigma-Aldrich) inhibition assays with syringolin A were performed with the SensoLyte™ Green Protease Fluorometric Assay Kit (AnaSpec., San Jose, Calif., USA) according to the instructions of the manufacturer. Reaction volumes of 100 μl contained an enzyme concentration of 200 ng/ml and various amounts of test inhibitors. Protease activity was monitored at 33° C. in a FluoroCount Microplate Fluorometer (FluoroCount, Packard, Canberra, Australia) using 485 nm excitation and a 550 nm emission filters.

SK-N-SH cells = assay: annexin V assay by flow cytometry; type: cell-based, human; conditions: 25 μM, 48 hours
Method: SK-N-SH cells at a concentration of 1.0×10^5 cells per ml were seeded in 12-well plates containing 1 ml of culture medium per well. After 24 hours, 10 μl of syringolin A (25 μM final concentration) or an equal volume of sterile water (control) was added per well. Cells were incubated for 48 hours, trypsinized, washed twice in phosphate-buffered saline (PBS) and were counted; 1-2×10^5 cells suspended in 0.1 ml of 1× assay buffer per vial according to the manufacturer's instructions (BD Biosciences, Palo Alto, Calif.). Cells were stained with annexin V-FITC (5 μl) for 15 minutes in the dark, at room temperature. Assay buffer (0.4 ml) was added, and 5000 cells were analyzed using a FACScan flow cytometer (Becton Dickinson, San Jose, Calif.). The […] program was used for data analysis.

[1] = system: cells colonized by powdery mildew in wheat; conditions: literature (Amrein 2004; Waspi 1998-2001); cited from earlier work
[2] = target: T2, proteasome activity in SK-N-SH neuroblastoma cells (Homo sapiens, UniProt P28074); conditions: read-out: IC50 of proteasomal activity, previously determined, Groll et al. 2008; cited from earlier work
T2 construct: endogenous in cells; host or cells: SK-N-SH
T2 sequence (P28074 60-263): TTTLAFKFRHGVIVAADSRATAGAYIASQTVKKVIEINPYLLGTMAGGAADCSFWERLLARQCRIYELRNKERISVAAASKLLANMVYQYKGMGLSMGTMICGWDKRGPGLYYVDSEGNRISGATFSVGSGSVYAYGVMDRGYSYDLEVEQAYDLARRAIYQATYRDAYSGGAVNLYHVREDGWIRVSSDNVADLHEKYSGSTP

Rat-1 fibroblasts cells = assay: sulphorhodamine B (SRB) cell viability / proliferation assay; type: cell-based
Method: To then test the effects of syringolin A on proliferation, cells at 0.25-0.5×10^5 cells per ml were seeded in 96-well microtiter plates containing 100 μl of culture medium per well. After 24 hours, syringolin A was added to wells to a final concentration of 0.5 μm to 100 μm. Syringolin was not added to parallel samples of control cells. Cells were incubated for 48 hours, photographed, and the viability of cells (calculated as a percentage of control cell counts) was determined using the sulphorhodamine B (SRB) assay as previously reported (Skehan, et al. 1990. J. Natl. Cancer Inst. 82:1107-1112, which is incorporated herein by reference in its entirety). In brief, cell culture medium was removed from the microtiter plate and adherent cells were fixed with 10% (w/v) trichloracetic acid (TCA) for 30 minutes at room temperature. Following four washes with tap water, 100 μl of SRB (Sigma Chemical Co., St. Louis, Mo.) (0.4 g/100 ml 1% [v/v] glacial acetic acid in water) was added and the plate was then incubated for 30 minutes at room temperature, and rinsed four times with 3% (v/v) glacial acetic acid. […] The absorption at a wavelength of 560 nm was read using an HTS 7000 Plus Bioassay Reader or a Victor 3, 1420 Multilabel Counter (PerkinElmer, Inc. Boston, Mass.). […]

[3] = system: microtubule-associated protein 1 light chain 3 (LC3); assay: immunoblot of LC3 conversion (autophagy) in SK-N-SH cells; type: cell-based, human
Method: To verify whether autophagy is induced in GlbA-treated cells, levels of microtubule-associated protein 1 light chain 3 (LC3), a reliable marker of autophagosomes, were measured. […] Therefore, this characteristic conversion of LC3 can be used to monitor autophagic activity. SK-N-SH cells were treated with GlbA in the presence or absence of 3-MA, and cell lysates were probed with LC3.

Compound: CC(C)[C@H](NC(=O)N[C@H](C(=O)N[C@H]1/C=C/CCNC(=O)/C=C/[C@H](C(C)C)NC1=O)C(C)C)C(=O)O [syringolin A]
- EC50 (SKOV3 cells): ~20 µM
- papain activity (Papaya latex papain): not affected
- annexin V binding (SK-N-SH cells): strongly bound annexin V
- hypersensitive cell death [1]: induce hypersensitive death of cells colonized by powdery mildew in wheat
- IC50 [2]: 1.43 µM
- cell morphology (Rat-1 fibroblasts cells; Rat-1, 25 μM, no detachment or floating cells): affected the cell morphology
- cell proliferation rate (Rat-1 fibroblasts cells; Rat-1, dose-dependent): reduced the cell proliferation rate

Compound: CCCCCCC/C=C/C=C/C(=O)N[C@H](C(=O)N[C@H]1C[C@@H](O)CCNC(=O)/C=C/[C@H](C)NC1=O)[C@@H](C)O [glidobactin A]
- GlbA-induced autophagy after pre-treatment with 3-MA ([3]; GlbA with 3-MA pre-treatment): reverted GlbA-induced autophagy
- LC3-II amount / conversion of LC3 ([3]; compared to untreated control cells): larger amounts of LC3-II
